PMC6027433, “Synthesis, Evaluation of Cytotoxicity and Molecular Docking Studies of the 7-Acetamido Substituted 2-Aryl-5-bromo-3-trifluoroacetylindoles as Potential Inhibitors of Tubulin Polymerization” (Pharmaceuticals, 2018)

How the values were obtained:
[1] = test system: cervical cancer (HeLa) cells; assay: MTT dose response cytotoxicity, HeLa; assay type: cell-based; settings: Homo sapiens, 48 h
Experimental: (§1) Cells were seeded as described in above. […] The medium was aspirated and replaced with 200 μL fresh medium containing the dilution of the respective test compound. The test sample were added to each well and the plates were incubated for a further 48 h at 37 °C under 5% CO2 atmosphere in a humidified incubator. After this incubation period, the medium was removed and then replaced with 100 μL fresh culture medium containing MTT at a final concentration of 0.5 mg/mL. The 96-well plates were returned to the incubator and incubated for an additional 3 h. The medium was removed and the MTT crystals were solubilized in 100 μL DMSO and the absorbance was measured at 560 nm using a Labsystems Multiwell Scanning spectrophotometer (Thermo Fischer Scientific, Edenvale, South Africa).
(§2) Quantification of live and dead cells for the screening assay was performed using the ImageXpress Micro XLS Widefield Microscope and acquired images analysed using the MetaXpress software and Multi-Wavelength Cell Scoring Application Module. Acquired data was transferred to an EXCEL spreadsheet and relative cell viability was determined using quadruplicate wells for each concentration. Untreated cells were considered to have 100% cell viability (i.e., the mean OD of the untreated wells = 100% viability). Cell viabilities in other test wells were calculated relative to the untreated control and expressed as a percentage. Dose response analysis was performed using the statistical software GraphPad Prism and IC50 values calculated from the concentration-response data using a mathematical Hill function.

lung cancer (A549) cells = assay: MTT dose response cytotoxicity, A549; assay type: cell-based; settings: Homo sapiens, 48 h
Experimental: as §1, §2

A549 cancer cells = assay: Two-concentration cytotoxicity screen (Hoechst 33342/PI imaging), A549; assay type: cell-based; settings: 10 μM and 100 μM, 48 h
Experimental: (§3) The HeLa and A549 cancer cells were initially exposed to two concentrations of each test compound (10 μM and 100 μM) for 48 h with a well-known chemotherapeutic drug, Melphalan, used as a reference standard at the same concentrations (Table 2 and Table 3). Acquisition was performed using the ImageXpress Micro XLS Widefield Microscope and the acquired images were analyzed using the MetaXpress software and Multi-Wavelength Cell Scoring Application Module (see Figure S2 in the Supplementary Information for cell viability percentages for each compound). The structure activity relationship (SAR) of these compounds has been evaluated with respect to the substitution patterns on the 2-phenyl ring, C-3 and C-7 positions.
(§4) The human cervical cancer cell line, HeLa, and lung cancer cell line, A549 were used for the screening assay. HeLa cells were grown and maintained in RPMI 1640 medium supplemented with 10% fetal bovine serum (FBS) and A549 cells were grown and maintained in EMEM supplemented with 10% FBS and 10% non-essential amino acids. In the case of screening experiments, the cells were seeded into 96 well microtiter plates at a density of 6000 cells/well to a total volume of 200 μL per well. The microtiter plates were incubated at 37 °C, 5% CO2, and 100% relative humidity for 24 h to allow for cell attachment. Each of the test compounds was first reconstituted in DMSO at a concentration of 40 mM and then stored at 4 °C prior to use and final dilution to working concentrations with culture complete medium on the day of treatment. Two hundred microliters aliquots of the diluted compound in fresh medium was used to treat cells after aspiration of seeding medium. Each of the cell lines was incubated for 48 h at 37 °C in a humidified incubator under 5% CO2 atmosphere. Treatment medium was aspirated from all wells and replaced with 100 μL of Hoechst 33342 nuclear dye (5 μg/mL) and incubated for 10 min at room temperature. Thereafter, cells were stained with propidium iodide (PI) at 100 μg/mL in order to enumerate the proportion of dead cells within the population. […]
as §2, with “Untreated cells were considered to have 100% cell viability (i.e., the mean OD of the untreated wells = 100% viability).” left out

HeLa cancer cells = assay: Two-concentration cytotoxicity screen (Hoechst 33342/PI imaging), HeLa; assay type: cell-based; settings: 10 μM and 100 μM, 48 h
Experimental: as §3, §4
as §2, with “Untreated cells were considered to have 100% cell viability (i.e., the mean OD of the untreated wells = 100% viability).” left out

A549 cells = assay: Caspase 8 and 3 activation (immunochemical), A549; assay type: cell-based, human; settings: 24 h exposure at IC50 values
Experimental: (§5) Several distinctive mechanisms of cancer cell death such as apoptosis, necrosis, autophagy and cornification have been identified, and these are characterized by differences in morphology and biochemical changes. A major biochemical feature of apoptosis is the activation of caspases, which plays a central role in the morphological changes associated with apoptosis. Caspase activation was determined using immunochemical methods and the antibodies against activated caspase 8 and caspase 3. […] Activated caspase 8 can be used as a convenient indicator of involvement of the extrinsic death receptor pathway of apoptosis. Executioner caspases including caspase 3 are, in turn, activated by the initiator caspases. This protein is either partially or totally responsible for the cleavage of many key proteins such as PARP, DNA protein kinases and retinoblastoma protein [25]. […] This was true for both activated caspase 8 and 3. A more distinct increase was evident with caspase 3 albeit less pronounced than that of 4c and the increase was expected as caspase 3 is activated by initiator caspase including caspase 8, which is a later event in apoptosis. […] Prolonged treatment of the cells with compounds 5e–h for 48 h or more, for example, would probably result in significant effects. We also evaluated compound 5g for potential to induce other key apoptotic biochemical features such as phosphatidylserine (PS) translocation, cell cycle arrest and mitochondrial membrane depolarization.
(§6) Compounds 4c and 5g were selected for mechanism studies and these test compounds were reconstituted in dimethyl sulphoxide (DMSO) to give a final concentration of 40 mM. Samples were stored at 4 °C until required. […]
(§7) Quantification of live and dead cells for the assay was performed using the ImageXpress Micro XLS Widefield Microscope and acquired images analysed using the MetaXpress software and Multi-Wavelength Cell Scoring Application Module and the Cell Cycle Module. Acquired data was transferred to an EXCEL spreadsheet and data was analysed and processed.

HeLa cells = assay: Caspase 8 and 3 activation (immunochemical), HeLa; assay type: cell-based, human; settings: 24 h exposure at IC50 values
Experimental: as §5, §6, §7

[2] = test system: neurotesin receptor type 2 (NTS2); set-up: method as in PMID 25157640; settings: cited from earlier work

| SMILES | IC50 [1] [µM] | melting point [°C] | IC50 (lung cancer (A549) cells) [µM] | Cytotoxicity (percentage live cells compared to untreated control) (A549 cancer cells) | Cytotoxicity (percentage live cells compared to untreated control) (HeLa cancer cells) | Caspase 8 and 3 activation (% change in mean integrated fluorescence intensity of the untreated control) (A549 cells) | Caspase 8 and 3 activation (% change in mean integrated fluorescence intensity of the untreated control) (HeLa cells) | fold more active than the expected C-3 unsubstituted analogue ([2]; NTS2) [fold] | IC50 [2] [µM] |
| --- | --- | --- | --- | --- | --- | --- | --- | --- | --- |
| CC(=O)c1cc(Br)cc2cc(-c3ccccc3)[nH]c12 [Compound 2a, 1-(5-Bromo-2-phenyl-1H-indol-7-yl)ethanone] | > 200 | 139 to 142 | > 200 |  |  |  |  |  |  |
| CC(=O)c1cc(Br)cc2cc(-c3ccc(F)cc3)[nH]c12 [Compound 2b, 1-[5-Bromo-2-(4-fluorophenyl)-1H-indol-7-yl]ethanone] | > 200 | 171 to 173 | > 200 |  |  |  |  |  |  |
| CC(=O)c1cc(Br)cc2cc(-c3cccc(Cl)c3)[nH]c12 [Compound 2c, 1-[5-Bromo-2-(3-chlorophenyl)-1H-indol-7-yl]ethanone] | > 200 | 140 to 143 | > 200 |  |  |  |  |  |  |
| COc1ccc(-c2cc3cc(Br)cc(C(C)=O)c3[nH]2)cc1 [Compound 2d, 1-[5-Bromo-2-(4-methoxyphenyl)-1H-indol-7-yl]ethanone] | > 200 | 140 to 142 | > 200 |  |  |  |  |  |  |
| CC(=O)Nc1cc(Br)cc2cc(-c3ccccc3)[nH]c12 [Compound 4a, N-(5-Bromo-2-phenyl-1H-indol-7-yl)acetamide] | > 200 |  | > 200 | Lack of cytotoxicity | Lack of cytotoxicity |  |  |  |  |
| CC(=O)Nc1cc(Br)cc2cc(-c3ccc(F)cc3)[nH]c12 [Compound 4b, N-[5-Bromo-2-(4-fluorophenyl)-1H-indol-7-yl]acetamide] | 122.4 ± 1.02 |  | 116.2 ± 0.78 | modest cytotoxicity | modest cytotoxicity |  |  |  |  |
| CC(=O)Nc1cc(Br)cc2cc(-c3cccc(Cl)c3)[nH]c12 [Compound 4c, N-(5-Bromo-2-(3-chlorophenyl)-1H-indol-7-yl)acetamide] | 126.9 ± 1 |  | 154.6 ± 0.9 | modest cytotoxicity | modest cytotoxicity | clear increases | clear increases |  |  |
| COc1ccc(-c2cc3cc(Br)cc(NC(C)=O)c3[nH]2)cc1 [Compound 4d, N-[5-Bromo-2-(4-methoxyphenyl)-1H-indol-7-yl]acetamide] | 125 ± 0.88 |  | 146.8 ± 1 | modest cytotoxicity | modest cytotoxicity |  |  |  |  |
| CC(=O)c1cc(Br)cc2c(C(=O)C(F)(F)F)c(-c3ccccc3)[nH]c12 [Compound 5a, 1-(7-Acetyl-5-bromo-2-phenyl-1H-indol-3-yl)-2,2,2-trifluoroethanone] | > 200 | 175 to 176 | > 200 |  |  |  |  |  |  |
| CC(=O)c1cc(Br)cc2c(C(=O)C(F)(F)F)c(-c3ccc(F)cc3)[nH]c12 [Compound 5b, 1-[7-Acetyl-5-bromo-2-(4-fluorophenyl)-1H-indol-3-yl]-2,2,2-trifluoroethanone] | > 200 | 168 to 171 | > 200 |  |  |  |  |  |  |
| CC(=O)c1cc(Br)cc2c(C(=O)C(F)(F)F)c(-c3cccc(Cl)c3)[nH]c12 [Compound 5c, 1-[7-Acetyl-5-bromo-2-(3-chlorophenyl)-1H-indol-3-yl]-2,2,2-trifluoroethanone] | > 200 | 138 to 141 | > 200 |  |  |  |  |  |  |
| COc1ccc(-c2[nH]c3c(C(C)=O)cc(Br)cc3c2C(=O)C(F)(F)F)cc1 [Compound 5d, 1-[7-Acetyl-5-bromo-2-(4-methoxyphenyl)-1H-indol-3-yl]-2,2,2-trifluoroethanone] | > 200 | 170 to 173 | > 200 |  |  |  |  |  |  |
| CC(=O)Nc1cc(Br)cc2c(C(=O)C(F)(F)F)c(-c3ccccc3)[nH]c12 [Compound 5e, N-[5-Bromo-2-phenyl-3-trifluoroacetyl-1H-indol-7-yl]acetamide] | 12.9 ± 1.11 | 141 to 144 | 9.94 ± 0.99 |  |  |  |  |  |  |
| CC(=O)Nc1cc(Br)cc2c(C(=O)C(F)(F)F)c(-c3ccc(F)cc3)[nH]c12 [Compound 5f, N-[5-Bromo-2-(4-fluorophenyl)-3-trifluoroacetyl-1H-indol-7-yl]acetamide] | 7.95 ± 0.9 | 195 to 197 | 5.03 ± 0.71 |  |  |  |  |  |  |
| COc1ccc(-c2[nH]c3c(NC(C)=O)cc(Br)cc3c2C(=O)C(F)(F)F)cc1 [Compound 5h, N-[5-Bromo-2-(4-methoxyphenyl)-3-trifluoroacetyl-1H-indol-7-yl]acetamide] | 10.7 ± 1.03 | 179 to 182 | 3.26 ± 0.51 |  |  |  |  |  |  |
| N[C@@H](Cc1ccc(N(CCCl)CCCl)cc1)C(=O)O [Melphalan, reference compound] | 37.16 ± 0.22 |  | 30.7 ± 0.76 |  |  | clear increases | clear increases |  |  |
| Cc1ccc(S(=O)(=O)Nc2ccc3c(c2)c(C(=O)C(F)(F)F)cn3CC(=O)N[C@@H](CC(C)C)C(=O)O)cc1 [NTRC-824, N-[(5-{[(4-methylphenyl)sulfonyl]amino}-3-(trifluoroacetyl)-1H-indol-1-yl)acetyl]-L-leucine] |  |  |  |  |  |  |  | 90 | 0.038 |
